Measured values taken from US20210205277A1, “MODULATORS OF THE INTEGRATED STRESS PATHWAY” (Calico Life Sciences LLC, priority 2017, published 2021).

Each molecule was assayed on HEK293T cells carrying the ATF4 luciferase reporter (assay: ATF4-Luc assay (in vitro model of VWMD)). Conditions: Homo sapiens, HEK-293T; HEK293T cells with ATF4 5'-UTR firefly luciferase reporter; 1 μg/mL tunicamycin; 7 hours; One Glo luminescence.
Type: cell-based
Method: In order to test exemplary compounds of the invention in a cellular context, a stable VWMD cell line was first constructed. The ATF4 reporter was prepared by fusing the human full-length ATF4 5′-UTR (NCBI Accession No. BC022088.2) in front of the firefly luciferase (FLuc) coding sequence lacking the initiator methionine as described in Sidrauski et al (eLife 2013). The construct was used to produce recombinant retroviruses using standard methods and the resulting viral supernatant was used to transduce HEK293T cells, which were then subsequently selected with puromycin to generate a stable cell line.
HEK293T cells carrying the ATF4 luciferase reporter were plated on polylysine coated 384-well plates (Greiner Bio-one) at 30,000 cells per well. Cells were treated the next day with 1 μg/mL tunicamycin and 200 nM of a compound of Formula (I) for 7 hours. Luminescence was measured using One Glo (Promega) as specified by the manufacturer. Cells were maintained in DMEM with L-glutamine supplemented with 10% heat-inactivated FBS (Gibco) and Antibiotic-Antimycotic solution (Gibco).
Table 2 below summarizes the EC50 data obtained using the ATF4-Luc assay for exemplary compounds of the invention.
`O=C(NC12CCC(c3nc(-c4ccc(Cl)c(F)c4)no3)(CC1)C(O)C2)c1cc(C(F)F)no1` (stereo not shown) [Compound 121, N-{4-[3-(4-chloro-3-fluorophenyl)-1,2,4-oxadiazol-5-yl]-3-hydroxybicyclo[2.2.2]octan-1-yl}-3-(difluoromethyl)-1,2-oxazole-5-carboxamide] showed an EC50 of 500 to 2000 nM. With `O=C(COc1ccc(Cl)c(F)c1)NC12CCC(c3ncc(-c4ccc(Cl)cc4)o3)(CC1)[C@H](O)C2` [Compound 114, 2-(4-chloro-3-fluorophenoxy)-N-{(3R)-4-[5-(4-chlorophenyl)-1,3-oxazol-2-yl]-3-hydroxybicyclo[2.2.2]octan-1-yl}acetamide] the EC50 was < 10 nM. In the case of `O=C(COc1ccc(Cl)c(F)c1)NC12CCC(c3nnc(-c4ccc(Cl)c(F)c4)o3)(CC1)C[C@@H]2O` (single isomer, unassigned) [Compound 123], the EC50 is reported as < 10 nM. With `O=C(COc1ccc(Cl)c(F)c1)NC12CCC(c3nc(-c4ccc(Cl)c(F)c4)no3)(CC1)CC2=O` [Compound 111, 2-(4-chloro-3-fluorophenoxy)-N-{4-[3-(4-chloro-3-fluorophenyl)-1,2,4-oxadiazol-5-yl]-2-oxobicyclo[2.2.2]octan-1-yl}acetamide] the EC50 was > 2000 nM. `O=C(COc1ccc(Cl)c(F)c1)NC12CCC(c3ncc(-c4ccc(Cl)cc4)[nH]3)(CC1)[C@@H](O)C2` [Compound 110, 2-(4-chloro-3-fluorophenoxy)-N-{(3S)-4-[5-(4-chlorophenyl)-1H-imidazol-2-yl]-3-hydroxybicyclo[2.2.2]octan-1-yl}acetamide] was tested, and the EC50 was < 10 nM. `O=C(COc1ccc(Cl)c(F)c1)NC12CCC(n3nccc3-c3ccc(Cl)c(F)c3)(CC1)C[C@@H]2O` [Compound 112, 2-(4-chloro-3-fluorophenoxy)-N-{(2S)-4-[5-(4-chloro-3-fluorophenyl)-1H-pyrazol-1-yl]-2-hydroxybicyclo[2.2.2]octan-1-yl}acetamide] gave an EC50 of 500 to 2000 nM. `O=C(COc1ccc(Cl)c(F)c1)NC12CCC(c3nnc(-c4ccc(Cl)c(F)c4)o3)(CC1)[C@H](O)C2` (single isomer, unassigned) [Compound 101] was tested, and the EC50 was < 10 nM. For `COc1ncc(-c2nnc(C34CCC(NC(=O)COc5ccc(Cl)c(F)c5)(CC3)C(O)C4)o2)cn1` (stereo not shown) [Compound 124, 2-(4-chloro-3-fluorophenoxy)-N-{2-hydroxy-4-[5-(2-methoxypyrimidin-5-yl)-1,3,4-oxadiazol-2-yl]bicyclo[2.2.2]octan-1-yl}acetamide], the EC50 was > 2000 nM. `O=C(COc1ccc(Cl)c(F)c1)NC12CCC(c3nnc(-c4ccc(Cl)c(F)c4)o3)(CC1)[C@@H](O)C2` [Compound 100, 2-(4-chloro-3-fluorophenoxy)-N-{(3S)-4-[5-(4-chloro-3-fluorophenyl)-1,3,4-oxadiazol-2-yl]-3-hydroxybicyclo[2.2.2]octan-1-yl}acetamide] was tested, and the EC50 was < 10 nM. `Cn1c(-c2ccc(Cl)c(F)c2)cnc1C12CC(NC(=O)COc3ccc(Cl)c(F)c3)(C1)C2` [Compound 117, 2-(4-chloro-3-fluorophenoxy)-N-{3-[5-(4-chloro-3-fluorophenyl)-1-methyl-1H-imidazol-2-yl]bicyclo[1.1.1]pentan-1-yl}acetamide] showed an EC50 of 10 to 50 nM. For `O=C(NC12CCC(c3nc(-c4cccc(F)c4)no3)(CC1)C(O)C2)c1cc(C(F)F)no1` (stereo not shown) [Compound 120, 3-(difluoromethyl)-N-{4-[3-(3-fluorophenyl)-1,2,4-oxadiazol-5-yl]-3-hydroxybicyclo[2.2.2]octan-1-yl}-1,2-oxazole-5-carboxamide], the EC50 was > 2000 nM. For `O=C(COc1ccc(Cl)c(Cl)c1)NC12CCC(n3ccc(-c4ccc(Cl)c(F)c4)c3)(CC1)C[C@@H]2O` [Compound 115, N-{(2S)-4-[3-(4-chloro-3-fluorophenyl)-1H-pyrrol-1-yl]-2-hydroxybicyclo[2.2.2]octan-1-yl}-2-(3,4-dichlorophenoxy)acetamide], the EC50 was < 10 nM. For `O=C(COc1ccc(Cl)c(F)c1)NC12CCC(c3nc(-c4ccc(Cl)c(F)c4)no3)(CC1)[C@@H](O)C2` [Compound 104, 2-(4-chloro-3-fluorophenoxy)-N-{(3S)-4-[3-(4-chloro-3-fluorophenyl)-1,2,4-oxadiazol-5-yl]-3-hydroxybicyclo[2.2.2]octan-1-yl}acetamide], the EC50 was < 10 nM. With `O=C(COc1ccc(Cl)c(F)c1)NC12CCC(c3nnc(-c4ccc(Cl)c(F)c4)o3)(CC1)C(O)C2` (stereo not shown) [Compound 107, 2-(4-chloro-3-fluorophenoxy)-N-{4-[5-(4-chloro-3-fluorophenyl)-1,3,4-oxadiazol-2-yl]-3-hydroxybicyclo[2.2.2]octan-1-yl}acetamide] the EC50 was < 10 nM. `O=C(COc1ccc(Cl)c(F)c1)NC12CCC(n3ccc(-c4ccc(Cl)c(F)c4)c3)(CC1)C[C@@H]2O` [Compound 113, 2-(4-chloro-3-fluorophenoxy)-N-{(2S)-4-[3-(4-chloro-3-fluorophenyl)-1H-pyrrol-1-yl]-2-hydroxybicyclo[2.2.2]octan-1-yl}acetamide] was tested, and the EC50 was < 10 nM. With `O=C(COc1ccc(Cl)c(F)c1)NC12CCC(n3ccc(-c4ccc(Cl)c(F)c4)c3)(CC1)CC2O` (stereo not shown) [Compound 102, 2-(4-chloro-3-fluorophenoxy)-N-{4-[3-(4-chloro-3-fluorophenyl)-1H-pyrrol-1-yl]-2-hydroxybicyclo[2.2.2]octan-1-yl}acetamide] the EC50 was < 10 nM. `O=C(COc1ccc(Cl)c(F)c1)NC12CCC(c3nc(-c4ccc(Cl)c(F)c4)no3)(CC1)[C@H](O)C2` [Compound 103, 2-(4-chloro-3-fluorophenoxy)-N-{(3R)-4-[3-(4-chloro-3-fluorophenyl)-1,2,4-oxadiazol-5-yl]-3-hydroxybicyclo[2.2.2]octan-1-yl}acetamide] was tested, and the EC50 was 10 to 50 nM. For `O=C(COc1ccc(Cl)c(F)c1)NC12CC(c3ncc(-c4ccc(Cl)c(F)c4)[nH]3)(C1)C2` [Compound 116, 2-(4-chloro-3-fluorophenoxy)-N-{3-[5-(4-chloro-3-fluorophenyl)-1H-imidazol-2-yl]bicyclo[1.1.1]pentan-1-yl}acetamide], the EC50 was < 10 nM. `O=C(COc1ccc(Cl)c(F)c1)NC12CCC(c3nnc(-c4ccc(Cl)c(F)c4)o3)(CC1)C(=O)C2` [Compound 106, 2-(4-chloro-3-fluorophenoxy)-N-{4-[5-(4-chloro-3-fluorophenyl)-1,3,4-oxadiazol-2-yl]-3-oxobicyclo[2.2.2]octan-1-yl}acetamide] was tested, and the EC50 was < 10 nM. `O=C(COc1ccc(Cl)c(F)c1)NC12CCC(n3ccc(-c4ccc(Cl)cc4)c3)(CC1)CC2O` (stereo not shown) [Compound 109, 2-(4-chloro-3-fluorophenoxy)-N-{4-[3-(4-chlorophenyl)-1H-pyrrol-1-yl]-2-hydroxybicyclo[2.2.2]octan-1-yl}acetamide] gave an EC50 of 10 to 50 nM. In the case of `O=C(COc1ccc(Cl)c(F)c1)NC12CCC(c3nc(-c4ccc(Cl)c(F)c4)no3)(CC1)C(=O)C2` [Compound 105, 2-(4-chloro-3-fluorophenoxy)-N-{4-[3-(4-chloro-3-fluorophenyl)-1,2,4-oxadiazol-5-yl]-3-oxobicyclo[2.2.2]octan-1-yl}acetamide], the EC50 is reported as < 10 nM. For `O=C(COc1ccc(Cl)c(F)c1)NC12CCC(c3ncc(-c4ccc(Cl)cc4)[nH]3)(CC1)[C@H](O)C2` [Compound 118, 2-(4-chloro-3-fluorophenoxy)-N-{(3R)-4-[5-(4-chlorophenyl)-1H-imidazol-2-yl]-3-hydroxybicyclo[2.2.2]octan-1-yl}acetamide], the EC50 was < 10 nM. For `O=C(COc1ccc(Cl)c(F)c1)NC12CCC(c3nnc(-c4ccc(Cl)c(F)c4)o3)(CC1)C[C@H]2O` (single isomer, unassigned) [Compound 122], the EC50 was < 10 nM. For `O=C(COc1ccc(Cl)c(F)c1)NC12CCC(c3nnc(-c4ccc(Cl)c(F)c4)o3)(CC1)CC2O` (stereo not shown) [Compound 108, 2-(4-chloro-3-fluorophenoxy)-N-{4-[5-(4-chloro-3-fluorophenyl)-1,3,4-oxadiazol-2-yl]-2-hydroxybicyclo[2.2.2]octan-1-yl}acetamide], the EC50 was < 10 nM. With `O=C(COc1ccc(Cl)c(F)c1)NC12CCC(c3ncc(-c4ccc(Cl)c(F)c4)[nH]3)(CC1)[C@@H](O)C2` [Compound 119, 2-(4-chloro-3-fluorophenoxy)-N-{(3S)-4-[5-(4-chloro-3-fluorophenyl)-1H-imidazol-2-yl]-3-hydroxybicyclo[2.2.2]octan-1-yl}acetamide] the EC50 was < 10 nM.
